Our source for the IC50 values is US9416111B2, “Substituted diazine and triazine spleen tyrosine kinease (Syk) inhibitors” (Merck Sharp & Dohme Corp., priority 2012, dated 2016).

A value given as a limit tells only on which side of the number the result lay.

The target of this assay is T1, recombinant human GST-SYK (Homo sapiens, UniProt P43405).
T1 construct: purchased Carna Biosciences 08-176
Kind of assay: Homogeneous Time-Resolved Fluorescence (HTRF) assay for the recombinant human Syk enzyme. The assay is classed as biochemical. The settings on record: GST-hSYK 5 pM, ATP 25 μM, IC50 rated in classes, read-out: rhSYK Activity. As to the method: Homogeneous Time-Resolved Fluorescence (HTRF) Assay for the Recombinant Human Syk Enzyme
A recombinant GST-hSYK fusion protein was used to measure potency of compounds to inhibit human Syk activity. The recombinant human GST-SYK (Carna Biosciences #08-176) (5 pM final concentration) was incubated with various concentrations of the inhibitor diluted in DMSO (0.1% final concentration) for 10 minutes at room temperature in 15 mM Tris-HCl (pH 7.5), 0.01% tween 20, 2 mM DTT in 384 well plate format. To initiate the reaction the biotinylated substrate peptide (250 nM final concentration) that contains the phosphorylation site for Syk was added with magnesium (5 mM final concentration) and ATP (25 μM final concentration). Final volume of the reaction was 10 μL. Phosphorylation of the peptide was allowed to proceed for 45′ at room temperature. To quench the reaction and detect the phosphorylated product, 2 nM of a Europium-anti-phosphotyrosine antibody (Perkin Elmer #AD0161) and 70 nM SA-APC (Perkin-Elmer #CR130-100) were added together in 15 mM Tris pH 7.5, 40 mM EDTA, 0.01% tween 20. Final volume of the quenching solution was 10 μL. The resulting HTRF signal was measured after 30 minutes on an EnVision (Perkin-Elmer) reader using a time-resolved fluorescence protocol.
On the technique in general: In TR-FRET formats the signal depends on donor and acceptor labels being close together.
On to `Cc1cc(Nc2nccc(C(F)(F)F)n2)cc(-c2cnc(NCCCC(=O)O)nc2)c1` [Example 2.11, 4-{[5-(3-methyl-5-{[4-(trifluoromethyl)pyrimidin-2-yl]amino}phenyl)pyrimidin-2-yl]amino}butanoic acid], for which the IC50 is less than 100 nM.
As for `Cc1cc(Nc2nccc(C(F)(F)F)n2)cc(-c2cnc(NCC(=O)O)nc2)c1` [Example 2.12, N-[5-(3-methyl-5-{[4-(trifluoromethyl)pyrimidin-2-yl]amino}phenyl)pyrimidin-2-yl]glycine], the IC50 is less than 100 nM.
In the case of `Cc1cc(Nc2nccc(C(F)(F)F)n2)cc(-c2cnc(NCC(O)CO)nc2)c1` (stereo not drawn) [Example 2.13, 3-{[5-(3-methyl-5-{[4-(trifluoromethyl)pyrimidin-2-yl]amino}phenyl)pyrimidin-2-yl]amino}propane-1,2-diol] it was less than 100 nM; in that of `CCC[C@H](Nc1ncc(-c2cc(C)cc(Nc3nccc(C(F)(F)F)n3)c2)cn1)C(=O)O` [Example 2.14, N-[5-(3-methyl-5-{[4-(trifluoromethyl)pyrimidin-2-yl]amino}phenyl)pyrimidin-2-yl]-L-norvaline], less than 100 nM; in that of `Cc1cc(Nc2nccc(C(F)(F)F)n2)cc(-c2cnc(NCC(O)C(F)F)nc2)c1` (stereo not drawn) [Example 2.15, 1,1-difluoro-3-{[5-(3-methyl-5-{[4-(trifluoromethyl)pyrimidin-2-yl]amino}phenyl)pyrimidin-2-yl]amino}propan-2-ol], less than 100 nM.
As to `Cc1cc(Nc2nccc(C(F)(F)F)n2)cc(-c2cnc(NC3CCS(=O)(=O)C3)nc2)c1` (stereo not drawn) [Example 2.16, N-(3-{2-[(1,1-dioxidotetrahydrothiophen-3-yl)amino]pyrimidin-5-yl}-5-methylphenyl)-4-(trifluoromethyl)pyrimidin-2-], the IC50 is less than 100 nM.
Under `Cc1cc(Nc2nccc(C(F)(F)F)n2)cc(-c2cnc(NCc3cnn(C)c3)nc2)c1` [Example 2.17, N-[3-methyl-5-(2-{[(1-methyl-1H-pyrazol-4-yl)methyl]amino}pyrimidin-5-yl)phenyl]-4-(trifluoromethyl)pyrimidin-2-amine] stands less than 100 nM; under `Cc1cc(Nc2nccc(C(F)(F)F)n2)cc(-c2cnc(NC3CCOC3)nc2)c1` (stereo not drawn) [Example 2.18, N-{3-methyl-5-[2-(tetrahydrofuran-3-ylamino)pyrimidin-5-yl]phenyl}-4-(trifluoromethyl)pyrimidin-2-amine], less than 100 nM.
In the case of `Cc1cc(Nc2nccc(C(F)(F)F)n2)cc(-c2cnc(NCC3COCCO3)nc2)c1` (stereo not drawn) [Example 2.19, N-(3-{2-[(1,4-dioxan-2-ylmethyl)amino]pyrimidin-5-yl}-5-methylphenyl)-4-(trifluoromethyl)pyrimidin-2-amine] it was less than 100 nM.
`Cc1cc(Nc2nccc(C(F)(F)F)n2)cc(-c2cnc(N3CCS(=O)(=O)CC3)nc2)c1` [Example 2.20, N-{3-[2-(1,1-dioxidothiomorpholin-4-yl)pyrimidin-5-yl]-5-methylphenyl}-4-(trifluoromethyl)pyrimidin-2-amine]: the IC50 was less than 100 nM.
In the case of `Cc1cc(Nc2nccc(C(F)(F)F)n2)cc(-c2cnc(NC(C)c3ccccn3)nc2)c1` (stereo not drawn) [Example 2.21, N-(3-methyl-5-{2-[(1-pyridin-2-ylethyl)amino]pyrimidin-5-yl}phenyl)-4-(trifluoromethyl)pyrimidin-2-amine] it was less than 100 nM; in that of `Cc1cc(Nc2nccc(C(F)(F)F)n2)cc(-c2cnc(NCC3CCC(=O)N3)nc2)c1` (stereo not drawn) [Example 2.22, 5-({[5-(3-methyl-5-{[4-(trifluoromethyl)pyrimidin-2-yl]amino}phenyl)pyrimidin-2-yl]amino}methyl)pyrrolidin-2-one], less than 100 nM; in that of `Cc1cc(Nc2nccc(C(F)(F)F)n2)cc(-c2cnc(N3CCOC(CCO)C3)nc2)c1` (stereo not drawn) [Example 2.23, 2-{4-[5-(3-methyl-5-{[4-(trifluoromethyl)pyrimidin-2-yl]amino}phenyl)pyrimidin-2-yl]morpholin-2-yl}ethanol], 100 to 1000 nM.
In the case of `Cc1cc(Nc2nccc(C(F)(F)F)n2)cc(-c2cnc(N3CCC(=O)N(C)CC3)nc2)c1` [Example 2.24, 4-methyl-1-[5-(3-methyl-5-{[4-(trifluoromethyl)pyrimidin-2-yl]amino}phenyl)pyrimidin-2-yl]-1,4-diazepan-5-one] it was less than 100 nM.
Under `COCC1CN(c2ncc(-c3cc(C)cc(Nc4nccc(C(F)(F)F)n4)c3)cn2)CCO1` (stereo not drawn) [Example 2.25, N-(3-{2-[2-(methoxymethyl)morpholin-4-yl]pyrimidin-5-yl}-5-methylphenyl)-4-(trifluoromethyl)pyrimidin-2-amine] stands 100 to 1000 nM; under `Cc1cc(Nc2nccc(C(F)(F)F)n2)cc(-c2cnc(NCCS(N)(=O)=O)nc2)c1` [Example 2.26, 2-{[5-(3-methyl-5-{[4-(trifluoromethyl)pyrimidin-2-yl]amino}phenyl)pyrimidin-2-yl]amino}ethanesulfonamide], less than 100 nM; under `Cc1cc(Nc2nccc(C(F)(F)F)n2)cc(-c2cnc(N3CCCC(C)(O)C3)nc2)c1` (stereo not drawn) [Example 2.27, 3-methyl-1-[5-(3-methyl-5-{[4-(trifluoromethyl)pyrimidin-2-yl]amino}phenyl)pyrimidin-2-yl]piperidin-3-ol], less than 100 nM.
Turning to `Cc1cc(Nc2nccc(C(F)(F)F)n2)cc(-c2cnc(N3CCC(C)(O)C3)nc2)c1` (stereo not drawn) [Example 2.28, 3-methyl-1-[5-(3-methyl-5-{[4-(trifluoromethyl)pyrimidin-2-yl]amino}phenyl)pyrimidin-2-yl]pyrrolidin-3-ol], the IC50 is less than 100 nM.
Regarding `Cc1cc(Nc2nccc(C(F)(F)F)n2)cc(-c2cnc(N3CCC(C)(O)CC3)nc2)c1` [Example 2.29, 4-methyl-1-[5-(3-methyl-5-{[4-(trifluoromethyl)pyrimidin-2-yl]amino}phenyl)pyrimidin-2-yl]piperidin-4-ol], the IC50 was in the range of 100 to 1000 nM.
In the case of `Cc1cc(Nc2nccc(C(F)(F)F)n2)cc(-c2cnc(N(C)CCO)nc2)c1` [Example 2.30, 2-{methyl[5-(3-methyl-5-{[4-(trifluoromethyl)pyrimidin-2-yl]amino}phenyl)pyrimidin-2-yl]amino}ethanol] it was less than 100 nM.
`Cc1cc(Nc2nccc(C(F)(F)F)n2)cc(-c2cnc(N(CCO)CCO)nc2)c1` [Example 2.31, 2,2′-{[5-(3-methyl-5-{[4-(trifluoromethyl)pyrimidin-2-yl]amino}phenyl)pyrimidin-2-yl]imino}diethanol]: the IC50 is less than 100 nM.
In the case of `Cc1cc(Nc2nccc(C(F)(F)F)n2)cc(-c2cnc(N(C)CC(=O)O)nc2)c1` [Example 2.32, N-methyl-N-[5-(3-methyl-5-{[4-(trifluoromethyl)pyrimidin-2-yl]amino}phenyl)pyrimidin-2-yl]glycine] it was less than 100 nM.
Under `Cc1cc(Nc2nccc(C(F)(F)F)n2)cc(-c2cnc(NCCc3c[nH]cn3)nc2)c1` [Example 2.33, N-[3-(2-{[2-(1H-imidazol-4-yl)ethyl]amino}pyrimidin-5-yl)-5-methylphenyl]-4-(trifluoromethyl)pyrimidin-2-amine] stands less than 100 nM; under `Cc1cc(Nc2nccc(C(F)(F)F)n2)cc(-c2cnc(NCCCO)nc2)c1` [Example 2.34, 3-{[5-(3-methyl-5-{[4-(trifluoromethyl)pyrimidin-2-yl]amino}phenyl)pyrimidin-2-yl]amino}propan-1-ol], less than 100 nM.
In the case of `Cc1cc(Nc2nccc(C(F)(F)F)n2)cc(-c2cnc(NCCCCO)nc2)c1` [Example 2.35, 4-{[5-(3-methyl-5-{[4-(trifluoromethyl)pyrimidin-2-yl]amino}phenyl)pyrimidin-2-yl]amino}butan-1-ol] it was less than 100 nM.
On to `Cc1cc(Nc2nccc(C(F)(F)F)n2)cc(-c2cnc(NC3(CO)CCCC3)nc2)c1` [Example 2.36, (1-{[5-(3-methyl-5-{[4-(trifluoromethyl)pyrimidin-2-yl]amino}phenyl)pyrimidin-2-yl]amino}cyclopentyl)methanol], for which the IC50 is less than 100 nM.
In the case of `Cc1cc(Nc2nccc(C(F)(F)F)n2)cc(-c2cnc(NCC(N)=O)nc2)c1` [Example 2.37, N~2~-[5-(3-methyl-5-{[4-(trifluoromethyl)pyrimidin-2-yl]amino}phenyl)pyrimidin-2-yl]glycinamide] it was less than 100 nM.
In the case of `Cc1cc(Nc2nccc(C(F)(F)F)n2)cc(-c2cnc(NCCC(N)=O)nc2)c1` [Example 2.39, N~3~-[5-(3-methyl-5-{[4-(trifluoromethyl)pyrimidin-2-yl]amino}phenyl)pyrimidin-2-yl]-beta-alaninamide] it was less than 100 nM; in that of `CC(=O)N1CCN(c2ncc(-c3cc(C)cc(Nc4nccc(C(F)(F)F)n4)c3)cn2)CC1` [Example 2.40, N-{3-[2-(4-acetylpiperazin-1-yl)pyrimidin-5-yl]-5-methylphenyl}-4-(trifluoromethyl)pyrimidin-2-amine], less than 100 nM.
`Cc1cc(Nc2nccc(C(F)(F)F)n2)cc(-c2cnc(NC3CCCCNC3=O)nc2)c1` (stereo not drawn) [Example 2.42, 3-{[5-(3-methyl-5-{[4-(trifluoromethyl)pyrimidin-2-yl]amino}phenyl)pyrimidin-2-yl]amino}azepan-2-one]: the IC50 was less than 100 nM.
